Assay results taken from patent US12258574B2, “Methods and compositions for transducing lymphocytes and regulating the activity thereof” (Exuma Biotech Corp., priority 2016, dated 2025).
Where a name gives a salt, the structure may show the parent alone.

B1: T1B: an anti-Target 1 MRB-CAR from the series of candidate MRB-CARs in Example 3 (protein)
chain: EVQLVQSGAEVKKPGATVKISCKVSGYSFWGATMNWIRQPPGKGLEWIGLIKPSNGGTSYNQKFKGRVTISADKSISTAYLQWSSLKASDTAMYYCAHGHYESYEAMDYWGQGTLVTVSSGGGGSGGGGSGGGGSDIQMTQSPSSLSASVGDRVTITCKASQDVVSAVAWYQQKPGQAPRLLIYWQDTRHTGVPSRFSGSGSGTEFTLTISSLQPDDFATYYCQEHFSPPLTFGQGTKVEIKFWVLVVVGGVLACYSLLVTVAFIIFWVRSKRSRLLHSDYMNMTPRRPGPTRKHYQAYAAARDFAAYRSRVKFSRSADAPAYQQGQNQLYNELNLGRREEYDVLDKRRGRDPEMGGKPRRKNPQEGLYNELQKDKMAEAYSEIGMKGERRRGKGHDGLYQGLSTATKDTYDALHMQALPPR

Columns and labels:
CHO-Target 1 cells = experiment: pH shift cytotoxicity assay / HCl switch RTCA killing assay (xCELLigence); type: cell-based
Method: The cytotoxic activity of transduced T cells before and after pH change by addition of NaHCO3 or NaOH was measured using the xCELLigence System. Briefly, one day before the experiment, target cells (CHO cells stably transfected with a construct to express Target 1 on the cell surface (CHO-Target 1 cells)), were seeded into a 96-well E-plate (ACEA; San Diego, CA) at 10,000 cells/well with X-VIVO 15 media containing 40 mM HEPES and 40 mM PIPES, pH 6.7. Cryopreserved effector cells previously transduced with either lentiviral particles containing the nucleic acid encoding T1B or C1 (T1BVP and C1VP, respectively) produced as discussed above, were thawed and cultured for two days in X-VIVO 15 media containing 100 IU/mL of IL-2 (R&D Systems, Minneapolis, MN). On the day of the experiment, cells transduced with T1BVP or C1VP were washed and resuspended in X-VIVO 15 media containing 40 mM HEPES and 40 mM PIPES, pH 6.7 and then added into the experimental wells at effector cell/target cell ratios (E/T) of 1:1.
Impedance readings measured on the xCELLigence System (ACEA) were taken every 5 minutes and reported as the Cell Index (CI) to quantitate cell confluency as a measure of cell proliferation/cell lysis. Approximately 3 hours after effector cell addition, 8 μl of 7.5% NaHCO3 or 14 μl of 0.5 M NaOH was added into the wells with X-VIVO 15 media containing 40 mM HEPES and 40 mM PIPES, pH 6.7 to increase the pH from 6.7 to 7.4. Impedance readings were continued for approximately 20 hours after effector cell addition. Percentage of specific cytolysis was calculated as follows ((CI Target+C1VP transduced effector T cells)−(CI Target+T1BVP transduced effector T cells))/(CI Target+C1VP transduced effector T cells)×100.
The cytotoxic activity of transduced T cells before and after pH change by addition of HCl was measured using the xCELLigence System. Briefly, one day before the experiment, CHO-Target 1 cells were seeded into a 96 well E-plate at 10,000 cells/well with X-VIVO 15 media containing 40 mM HEPES and 40 mM PIPES, pH 7.4. Cryopreserved effector cells previously transduced with either C1VP or T1BVP, were thawed and cultured for two days in X-VIVO 15 media containing 100 IU/mL of IL-2. On the day of the experiment, cells transduced with T1BVP or C1VP were washed and resuspended in X-VIVO 15 media containing 40 mM HEPES and 40 mM PIPES, pH 7.4 and then added into experimental wells at effector cell/target cell ratios (E/T) of 1:1.
Impedance readings were taken every 5 minutes and reported as the Cell Index (CI). […] Impedance readings were continued for approximately 20 hours after effector cell addition. Percentage of specific cytolysis was calculated as follows ((CI Target+C1VP transduced effector T cells)−(CI Target+T1BVP transduced effector T cells))/(CI Target C1VP)×100.

[1] = Deep sequencing and sequence family analysis of parallel assessment populations, acyclovir candidates; type: binding; conditions: for presence in the negative population: sequenced final generation library responding to 1X selection buffer; for presence in the counter-targets population: sequenced final generation library responding to counter-targets; for Enrichment rate: ratio between final positive and penultimate positive population
Text: The Illumina MiSeq system (San Diego, CA) was implemented to sequence the aptamer libraries after parallel assessment using a single-end read technique. Deep sequencing and subsequent data analysis reduces the large number of screening rounds traditional SELEX requires, which may introduce error and bias due to the screening process (Schütze et al., 2011). Five samples were sequenced: the final generation library that responded to acyclovir, the final generation library that responded to the counter-targets, the final generation library that responded to 1× selection buffer (negative condition), the penultimate generation library that responded to acyclovir, and the final generation library that responded to the additional target of interest, penciclovir. From these sets of data, sequence families were constructed at 95% homology (sequence similarity considering mutations, deletions, and insertion) for aptamer candidate identification. There were 1,711,535 raw sequences (124,600 unique sequences) from the library that responded to acyclovir and 2,074,832 raw sequences (110,149 unique sequences) from the library that responded to penciclovir.
Sequence family construction focused primarily on sequence similarity. This means that a sequence's frequency in the positive target population was factored in, but greater emphasis was placed on the degree of variation between similar sequences, with 95% homology being the minimum requirement (100% match over the entire sequence is not necessary to join a family, up to 2 bases can be mismatched, inserted, or deleted). One would therefore expect families with the greatest number of members to rank highly as aptamer candidates. […] Under these conditions, several candidate families appeared to be strong candidates for binding acyclovir (Table 2) and penciclovir.

[2] = Qualitative PAGE assessment of selected aptamers after graphene oxide selection; type: binding; conditions: 0.5 mM MgCl2, 37° C., 0.5 μM aptamer, 1 μM target or counter-targets
Method: Qualitative PAGE assessment of selected aptamers was performed. Individually synthesized and transcribed aptamers were subjected to selection on Graphene Oxide (GrO) under physiological Mg++ (0.5 mM) and elution with either acyclovir (+) or counter-targets (×). The specifically eluted aptamer fractions for each sample were subjected to PAGE for analysis.
Final library concentration was 0.5 μM, target/counter-targets concentration was 1 μM (incubation volume was 200 μl).
After target/counter-target incubation, 250 μg of GrO (Angstrom Materials (Dayton, OH) was added to adsorb unbound candidate (10-minute incubation at 37° C.).
Samples were centrifuged for 5 minutes at 7,000×g. […] Running buffer was 1×TBE (supplier: Amresco/VWR; catalog #0658-20L, diluted using DI water). DNA ladder was 20/100 DNA ladder (IDT). Gels stained with Gel Star (Lonza, 50535) and imaged on a blue light transilluminator.

deoxyguanosine switch = experiment: Tests of natural deoxyguanosine riboswitch with nucleoside analogues; type: binding
Text: This example provides a method to screen libraries based on natural structural riboswitches that bind guanosine and deoxyguanosine. These riboswitches were used as scaffolds to develop biased libraries for the selection of aptamers that bind specifically to a ligand nucleoside analogue. Previously, isothermal titration calorimetry has been used to show these natural riboswitches bind to their native ligands. […] The single-stranded regions of the riboswitch were targeted for mutation and variant sequences that specifically respond to acyclovir or penciclovir were selected for.

[3] = Thermal denaturation by differential scanning calorimetry (DSC)
Method: At least 10 nmole of each candidate was lyophilized, and resuspended in 1× Binding Buffer (50 mM HEPES, 100 mM KCl, 0.5 mM MgCl2, pH 7.3) on the day of binding assessment.
All analyses were conducted in 1× Binding Buffer and all water used was DEPC-treated. All analytes were resuspended first in DEPC-treated water then diluted to their final listed concentration in 1× Binding Buffer. Prior to loading of the DSC (GE Healthcare MicroCal VP-DSC), the samples were degassed at 25° C. for 10 minutes.

Molecule | presence in the negative population [1] | presence in the counter-targets population [1] | response in qualitative PAGE assessment (elution from GrO with acyclovir vs counter-targets) [2] | Enrichment rate [1] | further results
[Na+].[OH-] [NaOH] |  |  |  |  | effect on cytotoxic activity of MRB-CAR T cells of raising media pH from 6.7 to 7.4 (CHO-Target 1 cells; added about 3 hours after effector cells, E/T 1:1): inhibited the cytotoxic activity
F1A-961: acyclovir aptamer candidate; SEQ ID NO:220 (ACACCGTAGCATAATGGGCTACTGCCGCCGTCGACCTTTTGGAGACT; RNA riboswitch aptamer, listed DNA covers non-stem region only, further chemistry not given here) [Candidate F1A-961] | performing less well | show up to a small degree |  |  | 
F1A-769: acyclovir aptamer candidate, most prevalent sequence of family 769; SEQ ID NO:147 (ACAGGTCAGCATAATGTGCTAGTGCGCCTTCAAACCTATTTAGAGACT; RNA riboswitch aptamer, listed DNA covers non-stem region only, further chemistry not given here) [Candidate F1A-769] | minimally detected |  | selective positive response | performing adequately | 
Nc1nc2c(ncn2COCCO)c(=O)[nH]1 [acyclovir] |  |  |  |  | interaction with deoxyguanosine switch (deoxyguanosine switch): interacted weakly
F1A-996: acyclovir aptamer candidate; SEQ ID NO:221 (ACAGGGTAGCATAATGGCTTAGGACGCCTTCAAACCTATCAAGACT; RNA riboswitch aptamer, listed DNA covers non-stem region only, further chemistry not given here) [Candidate F1A-996] | performing less well | show up to a small degree | selective positive response |  | 
F1A-582: acyclovir aptamer candidate, most prevalent sequence of family 582; SEQ ID NO:108 (ACAGCTTAGCGTAATGGCTACTGACGCCGTCCAAACCTATTTACAGACT; RNA riboswitch aptamer, listed DNA covers non-stem region only, further chemistry not given here) [Candidate F1A-582] | did not perform well | did not perform well |  | greatest enrichment rate | 
Cl [HCl] |  |  |  |  | effect on cytotoxic activity of MRB-CAR T cells of switching media pH from 7.4 to 6.7 (CHO-Target 1 cells; 8 μl of 1 M HCl about 3 hours after effector cells, E/T 1:1): increased
Nc1nc2c(ncn2CCC(CO)CO)c(=O)[nH]1 [penciclovir] |  |  |  |  | interaction with deoxyguanosine switch (deoxyguanosine switch): interacted weakly
F1A-795: acyclovir aptamer candidate, most prevalent sequence of family 795; SEQ ID NO:164 (ACAGCGAAGCATAATGGCTACTGACGCCCTCAAACCCTATTTGCAGACT; RNA riboswitch aptamer, listed DNA covers non-stem region only, further chemistry not given here) [Candidate F1A-795] | performing less well | not detected | selective positive response |  | thermal denaturation transition ([3]; absence of acyclovir, 7.2 μM F1A-795, 1X Binding Buffer): about 60 °C; binding of acyclovir to the aptamer domain ([3]; concluded from stabilizing effect in DSC): bound by acyclovir
F1A-946: acyclovir aptamer candidate, most prevalent sequence of family 946; SEQ ID NO:198 (ACAGCGTAGCATAATGGGCTGCAGACGCCGTCAAACCTATTTGCAGACT; RNA riboswitch aptamer, listed DNA covers non-stem region only, further chemistry not given here) [Candidate F1A-946] | not found | not detected | selective positive response | performing adequately | 
F1A-935: acyclovir aptamer candidate, most prevalent sequence of family 935; SEQ ID NO:183 (ACAGGGTAGCATAATGGGCTACTTGACGCCTTCACCTATTTGTAGACT; RNA riboswitch aptamer, listed DNA covers non-stem region only, further chemistry not given here) [Candidate F1A-935] | not found | not detected |  | performing adequately | 
B1 |  |  |  |  | cytotoxic activity on CHO-Target 1 cells (CHO-Target 1 cells; pH 7.4, E/T 1:1): low
